Earlier results in US20250179582A1, “METHODS FOR TREATING CANCER PATIENTS WITH HOMOLOGOUS RECOMBINATION DEFICIENCY BASED ON TEMPLATED INSERTIONS” (Memorial Sloan-Kettering Cancer Center, priority 2022, published 2025).
Like-named read-outs stand apart in the source and are kept apart here.

System: relapsed high-grade serous ovarian/endometrioid/primary peritoneal/or fallopian carcinoma
Conditions: rucaparib versus placebo

Q: With `CNCc1ccc(-c2[nH]c3cc(F)cc4c3c2CCNC4=O)cc1` [rucaparib] as the molecule, how does the “progression-free survival hazard ratio (HR)” value (germline or somatic mutated BRCA1/2 cohort, patients with at least a partial response to platinum therapy) read?
A: 0.23

Q: And the “progression-free survival hazard ratio (HR)” value (patients with high genomic LOH)?
A: 0.44

Q: What about the “progression-free survival hazard ratio (HR)” value (patients with low genomic LOH) of the same molecule?
A: 0.58
